Laboratory results: PMC5218480 (PLoS ONE, 2017)

Tested on: MV-4-11 cells
Assay: Gene expression microarray analysis (Affymetrix PrimeView) and GSEA
Assay type: cell-based, human
Set-up: RFU PODN (11730768_x_at) / Fold change /veh PODN (11730768_x_at) / RFU LINC00158 (11744669_a_at) / Fold change /veh LINC00158 (11744669_a_at) / RFU DUSP10 (11751237_a_at) / Fold change /veh DUSP10 (11751237_a_at) / RFU ID3 (11757404_x_at) / Fold change /veh ID3 (11757404_x_at) / RFU PLEKHG5 (11737974_s_at) / Fold change /veh PLEKHG5 (11737974_s_at) / RFU LRRC4B (11730491_at) / Fold change /veh LRRC4B (11730491_at) / RFU GIMAP4 (11747438_a_at) / Fold change /veh GIMAP4 (11747438_a_at) / RFU KRT8 (11758183_x_at) / Fold change /veh KRT8 (11758183_x_at) / RFU CNN1 (11734310_a_at) / Fold change /veh CNN1 (11734310_a_at) / RFU VPS37D (11726825_at) / Fold change /veh VPS37D (11726825_at) / RFU C10orf10 (11716522_x_at) / Fold change /veh C10orf10 (11716522_x_at) / RFU KIR2DL2 /// KIR2DL4 /// KIR2DL5A /// KIR2DL5B /// KIR2DS1 /// KIR2DS2 /// KIR2DS3 /// KIR2DS4 /// KIR3DL3 /// KIR3DL3 /// KIR3DS1 (11738374_at) / Fold change /veh KIR2DL2 /// KIR2DL4 /// KIR2DL5A /// KIR2DL5B /// KIR2DS1 /// KIR2DS2 /// KIR2DS3 /// KIR2DS4 /// KIR3DL3 /// KIR3DL3 /// KIR3DS1 (11738374_at) / RFU C1QL1 (11718748_at) / Fold change /veh C1QL1 (11718748_at) / RFU TMPRSS4 (11747572_a_at) / Fold change /veh TMPRSS4 (11747572_a_at) / RFU HAMP (11756126_x_at) / Fold change /veh HAMP (11756126_x_at) / RFU RNFT2 (11725882_a_at) / Fold change /veh RNFT2 (11725882_a_at) / RFU NR4A2 (11747474_a_at) / Fold change /veh NR4A2 (11747474_a_at) / RFU ABCC12 (11746883_a_at) / Fold change /veh ABCC12 (11746883_a_at) / RFU TMEM136 (11760407_x_at) / Fold change /veh TMEM136 (11760407_x_at) / RFU CLDN22 /// WWC2 (11732394_at) / Fold change /veh CLDN22 /// WWC2 (11732394_at) / RFU HLA-DPB1 (11760878_x_at) / Fold change /veh HLA-DPB1 (11760878_x_at) / RFU SPINT1 (11716480_a_at) / Fold change /veh SPINT1 (11716480_a_at) / RFU GAP43 (11754022_s_at) / Fold change /veh GAP43 (11754022_s_at) / RFU A4GNT (11735810_at) / Fold change /veh A4GNT (11735810_at) / RFU PRB3 (11715151_x_at) / Fold change /veh PRB3 (11715151_x_at) / RFU TUBB4B (11761932_at) / Fold change /veh TUBB4B (11761932_at) / RFU CAPN14 (11732068_a_at) / Fold change /veh CAPN14 (11732068_a_at) / RFU TMCC2 (11721928_a_at) / Fold change /veh TMCC2 (11721928_a_at) / RFU IRGQ (11745062_a_at) / Fold change /veh IRGQ (11745062_a_at) / RFU FAM174B (11720279_a_at) / Fold change /veh FAM174B (11720279_a_at) / RFU TMPRSS4 (11748680_a_at) / Fold change /veh TMPRSS4 (11748680_a_at) / RFU FAM212B (11763350_a_at) / Fold change /veh FAM212B (11763350_a_at) / RFU PLEKHG5 (11743358_a_at) / Fold change /veh PLEKHG5 (11743358_a_at) / RFU ZSCAN30 (11745921_a_at) / Fold change /veh ZSCAN30 (11745921_a_at) / RFU CMKLR1 (11741424_a_at) / Fold change /veh CMKLR1 (11741424_a_at) / RFU LOC101060620 /// MAPK8IP1 (11723275_at) / Fold change /veh LOC101060620 /// MAPK8IP1 (11723275_at) / RFU SPTSSB (11747773_x_at) / Fold change /veh SPTSSB (11747773_x_at) / RFU PRSS12 (11739890_at) / Fold change /veh PRSS12 (11739890_at) / RFU BIN1 (11741810_x_at) / Fold change /veh BIN1 (11741810_x_at) / RFU WNT11 (11732464_a_at) / Fold change /veh WNT11 (11732464_a_at) / RFU C10orf10 (11716521_a_at) / Fold change /veh C10orf10 (11716521_a_at) / RFU C5orf56 (11738089_at) / Fold change /veh C5orf56 (11738089_at) / RFU CYB561 (11721691_x_at) / Fold change /veh CYB561 (11721691_x_at) / RFU ANKRD19P (11752326_a_at) / Fold change /veh ANKRD19P (11752326_a_at) / RFU OR2T12 /// OR2T33 /// OR2T8 (11738714_s_at) / Fold change /veh OR2T12 /// OR2T33 /// OR2T8 (11738714_s_at) / RFU VCAN (11748164_a_at) / Fold change /veh VCAN (11748164_a_at) / RFU JSRP1 (11732532_at) / Fold change /veh JSRP1 (11732532_at) / RFU KRTAP10-11 (11738290_x_at) / Fold change /veh KRTAP10-11 (11738290_x_at) / RFU MYO3A (11730013_a_at) / Fold change /veh MYO3A (11730013_a_at) / RFU EBF3 (11725865_a_at) / Fold change /veh EBF3 (11725865_a_at) / RFU CAMK2N1 (11719241_x_at) / Fold change /veh CAMK2N1 (11719241_x_at) / RFU C5orf56 (11738088_a_at) / Fold change /veh C5orf56 (11738088_a_at) / RFU OLFML3 (11715873_a_at) / Fold change /veh OLFML3 (11715873_a_at) / RFU LOC100653217 /// NTM (11731650_a_at) / Fold change /veh LOC100653217 /// NTM (11731650_a_at) / RFU MAPK11 (11762145_a_at) / Fold change /veh MAPK11 (11762145_a_at) / RFU FIZ1 (11724087_x_at) / Fold change /veh FIZ1 (11724087_x_at) / RFU OASL (11726364_x_at) / Fold change /veh OASL (11726364_x_at) / RFU SOX15 (11748057_x_at) / Fold change /veh SOX15 (11748057_x_at) / RFU CD79A (11719716_a_at) / Fold change /veh CD79A (11719716_a_at) / RFU HIST1H1D (11736915_at) / Fold change /veh HIST1H1D (11736915_at) / RFU CASKIN2 (11723855_a_at) / Fold change /veh CASKIN2 (11723855_a_at) / RFU LOC730098 (11760151_x_at) / Fold change /veh LOC730098 (11760151_x_at) / RFU OR4N2 (11742367_at) / Fold change /veh OR4N2 (11742367_at) / RFU PRRT2 (11749266_a_at) / Fold change /veh PRRT2 (11749266_a_at) / RFU SNX32 (11753110_a_at) / Fold change /veh SNX32 (11753110_a_at) / RFU CDHR5 (11726645_a_at) / Fold change /veh CDHR5 (11726645_a_at) / RFU RCAN1 (11760418_a_at) / Fold change /veh RCAN1 (11760418_a_at) / RFU FAM167A (11723789_a_at) / Fold change /veh FAM167A (11723789_a_at) / RFU FAM26E (11764081_at) / Fold change /veh FAM26E (11764081_at) / RFU ISYNA1 (11749810_s_at) / Fold change /veh ISYNA1 (11749810_s_at) / RFU ACY1 (11761880_at) / Fold change /veh ACY1 (11761880_at) / RFU 11764098_at / Fold change /veh 11764098_at / RFU SAMD14 (11745864_x_at) / Fold change /veh SAMD14 (11745864_x_at) / RFU NPB (11741838_a_at) / Fold change /veh NPB (11741838_a_at) / RFU TMPRSS6 (11731388_a_at) / Fold change /veh TMPRSS6 (11731388_a_at) / RFU KRTAP10-2 (11738614_at) / Fold change /veh KRTAP10-2 (11738614_at) / RFU ARHGAP8 /// PRR5-ARHGAP8 (11727945_x_at) / Fold change /veh ARHGAP8 /// PRR5-ARHGAP8 (11727945_x_at) / RFU KRTAP5-7 /// NADSYN1 (11734609_at) / Fold change /veh KRTAP5-7 /// NADSYN1 (11734609_at) / RFU RASL12 (11751679_a_at) / Fold change /veh RASL12 (11751679_a_at) / RFU CDKN2B (11736163_a_at) / Fold change /veh CDKN2B (11736163_a_at) / RFU PRF1 (11729649_at) / Fold change /veh PRF1 (11729649_at) / RFU, ZNF638 /// ZNF638-IT1 / Fold change vs veh, ZNF638 /// ZNF638-IT1 / RFU, PANK3 / Fold change vs veh, PANK3 / RFU, SH3YL1 / Fold change vs veh, SH3YL1 / RFU, ZEB2 / Fold change vs veh, ZEB2 / RFU, NRIP1 / Fold change vs veh, NRIP1 / RFU, PTTG1IP / Fold change vs veh, PTTG1IP / RFU, CAPN2 / Fold change vs veh, CAPN2 / RFU, MED14 / Fold change vs veh, MED14 / RFU, SNORA58 / Fold change vs veh, SNORA58 / RFU, C1orf63 / Fold change vs veh, C1orf63 / RFU, LRRFIP1 / Fold change vs veh, LRRFIP1 / RFU, NDUFAF7 / Fold change vs veh, NDUFAF7 / RFU, SLC12A2 / Fold change vs veh, SLC12A2 / RFU, IBTK / Fold change vs veh, IBTK / RFU, ESF1 / Fold change vs veh, ESF1 / Fold change vs veh, TMEM50B / RFU, TAOK1 / Fold change vs veh, TAOK1 / RFU, ACBD3 / Fold change vs veh, ACBD3 / RFU, TMA16 / Fold change vs veh, TMA16 / RFU, RWDD3 / Fold change vs veh, RWDD3 / RFU, BCAT1 / Fold change vs veh, BCAT1 / RFU, EDEM3 / Fold change vs veh, EDEM3 / RFU, TMEM33 / Fold change vs veh, TMEM33 / RFU, WDR75 / Fold change vs veh, WDR75 / RFU, AHCTF1 / Fold change vs veh, AHCTF1 / RFU, TFRC / Fold change vs veh, TFRC / RFU, ZDHHC17 / Fold change vs veh, ZDHHC17 / RFU, NOM1 / Fold change vs veh, NOM1 / RFU, ARL8B / Fold change vs veh, ARL8B / RFU, ZBTB11 / Fold change vs veh, ZBTB11 / RFU, TAMM41 / Fold change vs veh, TAMM41 / RFU, KIAA1704 /// LOC100996395 / Fold change vs veh, KIAA1704 /// LOC100996395 / RFU, ING1 / Fold change vs veh, ING1 / RFU, TRMT61B / Fold change vs veh, TRMT61B / RFU, FUBP3 / Fold change vs veh, FUBP3 / RFU, TP53 / Fold change vs veh, TP53 / RFU, TNKS2 / Fold change vs veh, TNKS2 / RFU, ZFP14 / Fold change vs veh, ZFP14 / RFU, ACTR2 / Fold change vs veh, ACTR2 / RFU, PPP3R1 / Fold change vs veh, PPP3R1 / RFU, PIK3R1 / Fold change vs veh, PIK3R1 / RFU, HNRNPA1 / Fold change vs veh, HNRNPA1 / RFU, RNF170 / Fold change vs veh, RNF170 / RFU, ZNF28 / Fold change vs veh, ZNF28 / RFU, RNGTT / Fold change vs veh, RNGTT / RFU, OGT / Fold change vs veh, OGT / RFU, BRD1 / Fold change vs veh, BRD1 / RFU, MARS / Fold change vs veh, MARS / RFU, ZNF655 / Fold change vs veh, ZNF655 / RFU, FAHD1 / Fold change vs veh, FAHD1 / RFU, BDP1 / Fold change vs veh, BDP1 / RFU, LRRCC1 / Fold change vs veh, LRRCC1 / RFU, ARID1A / Fold change vs veh, ARID1A / RFU, ZNF146 / Fold change vs veh, ZNF146 / RFU, ZNF330 / Fold change vs veh, ZNF330 / RFU, GPN3 / Fold change vs veh, GPN3 / RFU, C9orf123 / Fold change vs veh, C9orf123 / RFU, N4BP2L2 / Fold change vs veh, N4BP2L2 / RFU, ARFIP1 / Fold change vs veh, ARFIP1 / RFU, FAM179B / Fold change vs veh, FAM179B / RFU, BCL10 / Fold change vs veh, BCL10 / RFU, UHRF1BP1L / Fold change vs veh, UHRF1BP1L / RFU, BET1 / Fold change vs veh, BET1 / RFU, CNOT2 / Fold change vs veh, CNOT2 / RFU, ZNF268 / Fold change vs veh, ZNF268 / Fold change vs veh, ZNF507 / RFU, DGCR2 / Fold change vs veh, DGCR2 / RFU, WDSUB1 / Fold change vs veh, WDSUB1 / Fold change vs veh, HSP90B1 /// MIR3652 / RFU, ADSS / Fold change vs veh, ADSS / RFU, GK / Fold change vs veh, GK / RFU, ZNF148 / Fold change vs veh, ZNF148 / RFU, TAF9 / Fold change vs veh, TAF9 / RFU, SLC1A5 / Fold change vs veh, SLC1A5 / RFU, SLMO2 / Fold change vs veh, SLMO2 / RFU, ABCC4 / Fold change vs veh, ABCC4 / RFU, LOC101060439 /// RAP1B / Fold change vs veh, LOC101060439 /// RAP1B / RFU, RFX7 / Fold change vs veh, RFX7 / RFU, GTPBP10 / Fold change vs veh, GTPBP10 / RFU, CNEP1R1 / Fold change vs veh, CNEP1R1 / RFU, BIVM-ERCC5 /// ERCC5 / Fold change vs veh, BIVM-ERCC5 /// ERCC5 / RFU, ILF3 / Fold change vs veh, ILF3 / RFU 11762660_at / Fold change /veh 11762660_at / RFU VCAN (11757783_s_at) / Fold change /veh VCAN (11757783_s_at) / RFU DDX43 (11728927_at) / Fold change /veh DDX43 (11728927_at) / RFU KRT8 (11758188_x_at) / Fold change /veh KRT8 (11758188_x_at) / RFU NKD1 (11759106_at) / Fold change /veh NKD1 (11759106_at) / RFU SRD5A1 (11742802_a_at) / Fold change /veh SRD5A1 (11742802_a_at) / RFU TPSAB1 /// TPSB2 (11721975_s_at) / Fold change /veh TPSAB1 /// TPSB2 (11721975_s_at) / RFU GSTM3 (11746129_a_at) / Fold change /veh GSTM3 (11746129_a_at) / RFU IL23R (11737362_x_at) / Fold change /veh IL23R (11737362_x_at) / RFU TMEM51 (11727254_a_at) / Fold change /veh TMEM51 (11727254_a_at) / RFU PIWIL2 (11732686_x_at) / Fold change /veh PIWIL2 (11732686_x_at) / RFU ORM1 (11744905_x_at) / Fold change /veh ORM1 (11744905_x_at) / RFU CCDC152 (11743942_at) / Fold change /veh CCDC152 (11743942_at) / RFU ECM1 (11717891_a_at) / Fold change /veh ECM1 (11717891_a_at) / RFU IL23R (11748794_a_at) / Fold change /veh IL23R (11748794_a_at) / RFU TNFAIP8L3 (11732012_x_at) / Fold change /veh TNFAIP8L3 (11732012_x_at) / RFU MBOAT4 (11741988_at) / Fold change /veh MBOAT4 (11741988_at) / RFU 11764193_at / Fold change /veh 11764193_at / RFU TMEM53 (11763286_at) / Fold change /veh TMEM53 (11763286_at) / RFU MAGEB2 (11727129_at) / Fold change /veh MAGEB2 (11727129_at) / RFU TMEM200A (11744735_a_at) / Fold change /veh TMEM200A (11744735_a_at) / RFU CCDC152 (11751479_a_at) / Fold change /veh CCDC152 (11751479_a_at) / RFU FAM211A (11726209_a_at) / Fold change /veh FAM211A (11726209_a_at) / RFU RGS16 (11746705_a_at) / Fold change /veh RGS16 (11746705_a_at) / RFU VCAN (11755009_s_at) / Fold change /veh VCAN (11755009_s_at) / RFU RHOB (11743442_s_at) / Fold change /veh RHOB (11743442_s_at) / RFU RGS16 (11720943_a_at) / Fold change /veh RGS16 (11720943_a_at) / RFU RGS16 (11720944_at) / Fold change /veh RGS16 (11720944_at) / RFU, VPS4B / Fold change vs veh, VPS4B / RFU, CREB1 / Fold change vs veh, CREB1 / RFU, DNAJC13 / Fold change vs veh, DNAJC13 / RFU, GNAQ / Fold change vs veh, GNAQ / RFU, CDK5R1 / Fold change vs veh, CDK5R1 / RFU, ZRANB3 / Fold change vs veh, ZRANB3 / RFU, CUL4A / Fold change vs veh, CUL4A / RFU, CCNY / Fold change vs veh, CCNY / RFU, UFL1 / Fold change vs veh, UFL1 / RFU, COG3 / Fold change vs veh, COG3 / RFU, DIAPH2 / Fold change vs veh, DIAPH2 / RFU, SKA2 / Fold change vs veh, SKA2 / RFU, AFF3 / Fold change vs veh, AFF3 / RFU, LMF1 / Fold change vs veh, LMF1 / RFU, IPO11 / Fold change vs veh, IPO11 / RFU, DFFB / Fold change vs veh, DFFB / RFU, FOXP1 / Fold change vs veh, FOXP1 / RFU, CARD8 / Fold change vs veh, CARD8 / RFU, STRN3 / Fold change vs veh, STRN3 / RFU, ADK / Fold change vs veh, ADK / RFU, RASSF2 / Fold change vs veh, RASSF2 / RFU, WIPF1 / Fold change vs veh, WIPF1 / RFU, LARP1B / Fold change vs veh, LARP1B / RFU, RASA1 / Fold change vs veh, RASA1 / RFU, RB1 / Fold change vs veh, RB1 / RFU, PPFIA1 / Fold change vs veh, PPFIA1 / RFU, MAT2A / Fold change vs veh, MAT2A / RFU, CCT5 / Fold change vs veh, CCT5 / RFU, WDR92 / Fold change vs veh, WDR92 / RFU, CUX1 / Fold change vs veh, CUX1 / RFU, TTC7A / Fold change vs veh, TTC7A / RFU, TMEM135 / Fold change vs veh, TMEM135 / RFU, DEPTOR / Fold change vs veh, DEPTOR / RFU, CPM / Fold change vs veh, CPM / RFU, DNAJB6 / Fold change vs veh, DNAJB6 / RFU, CACNA2D3 / Fold change vs veh, CACNA2D3 / RFU, DTX4 / Fold change vs veh, DTX4 / RFU, TFCP2 / Fold change vs veh, TFCP2 / RFU, GMCL1 /// GMCL1P1 / Fold change vs veh, GMCL1 /// GMCL1P1 / RFU, AEBP2 / Fold change vs veh, AEBP2 / RFU, SNHG1 /// SNORD22 /// SNORD25 /// SNORD26 /// SNORD27 /// SNORD28 /// SNORD29 /// SNORD31 / Fold change vs veh, SNHG1 /// SNORD22 /// SNORD25 /// SNORD26 /// SNORD27 /// SNORD28 /// SNORD29 /// SNORD31 / Fold change (Aza/veh), C12orf56 (ProbeSet 11735607_a_at) / Fold change (ACY-1035/veh), C12orf56 (ProbeSet 11735607_a_at) / Fold change (Aza/veh), FGFR1OP (ProbeSet 11751329_s_at) / Fold change (ACY-1035/veh), FGFR1OP (ProbeSet 11751329_s_at) / Fold change (Aza/veh), VPS36 (ProbeSet 11739960_a_at) / Fold change (ACY-1035/veh), VPS36 (ProbeSet 11739960_a_at) / RFU SYPL1 (11715823_x_at) / Fold change /veh SYPL1 (11715823_x_at) / RFU IGFBP7 (11715501_s_at) / Fold change /veh IGFBP7 (11715501_s_at) / RFU REEP3 (11722064_at) / Fold change /veh REEP3 (11722064_at) / RFU IGLL1 (11728026_x_at) / Fold change /veh IGLL1 (11728026_x_at): dose or concentration left out as unconfirmed
Conditions: ProbeSet 11755070_a_at; LIST D

## Nc1ncn([C@@H]2O[C@H](CO)[C@@H](O)[C@H]2O)c(=O)n1 [azacitidine]
  Fold change vs veh, CARD8: 0.80
